From PubChem BioAssay AID493102 (Broad Institute, 2011) come the findings set out here.

The experiment has as its system SK-MEL-5 TRPM1-promoter luciferase reporter, 24 h. Kind of experiment: TRPM1 promoter luciferase signal decrease, dose response, MITF inhibitor project, cell-based, SK-MEL-5, cherry-picked, set 4 (AID 493102).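 Also: actives lower the luciferase signal so the potency reflects inhibition of reporter expression.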
For the compound `O=C(CCl)Nc1cccc(-c2cnc3ccccc3n2)c1`, the AC50 (as a rule, the concentration giving half of the maximal activity seen) is 4.02 µM.
The same measure for `Oc1c(CN2CCCCC2)cc(COCc2ccccc2)c2cccnc12`: 2.17 µM; for `COc1ccc(-c2cc(-c3ccccc3)c(C#N)c(S(C)=O)n2)cc1` (stereo not given): 11.8 µM; for `COc1cc(NC(=O)COc2cc(O)c3c(c2)OC(C)(C)CC3=O)cc(OC)c1OC`: 5.36 µM.
The result for `COc1cccc2sc(N3CCN(C(=O)c4ccc([N+](=O)[O-])o4)CC3)nc12` reads 7.03 µM; that for `CCCC(=O)N1CCN(c2ccc(NC(=O)c3ccc([N+](=O)[O-])o3)cc2Cl)CC1`, 7.65 µM; that for `CC(Oc1ccccc1)C(=O)Nc1nc(-c2ccccn2)cs1` (stereo not given), 14.1 µM.
`C/C(=N\NC(=O)C(c1ccccc1)c1ccccc1)c1ccccn1`: the AC50 was 5.96 µM.
The same measure for `CCOc1cc(/C=C(/C#N)c2ccc(Cl)cc2)cc(Cl)c1OCC(=O)O`: 5.61 µM; for `CCOC(=O)/C=c1/s/c(=C/c2ccc3cc(OC)ccc3c2)c(=O)n1CC(=O)NCC1CCCO1` (stereo not given): 6.79 µM.
The result for `CC(=O)Oc1c(C(=O)c2nnc(C)o2)c(=O)n(Cc2ccccc2)c2ccccc12` reads 6.98 µM; that for `CCOc1ccc(C(=O)Nc2cccc(C(=O)O)c2C)cc1Cl`, 8.56 µM; that for `c1ccc(C[n+]2cccc3c4ccccc4ccc32)cc1`, 3.41 µM.
The result for `CS(=O)(=O)c1nc(-c2ccc(F)cc2)cc(C(F)(F)F)n1` reads 7.2 µM; that for `COc1ccc(-c2nn(-c3ccccc3)cc2/C=N/N=C(N)N)cc1OC`, 14.6 µM.
Regarding `COc1cccc2c1C(=O)C=C(C)C2=O`, the AC50 is 7.83 µM.
The result for `O=C(Cn1ncc(Cl)c(Cl)c1=O)N1CCOCC1` reads 9.82 µM; that for `Cc1ccc2sc(N(CCCN(C)C)C(=O)c3ccc(S(=O)(=O)N(C)C4CCCCC4)cc3)nc2c1C`, 18 µM; that for `O=C(N/N=C/c1ccc([N+](=O)[O-])s1)c1ccccc1`, 2.29 µM.
The same measure for `Cc1cccc(N2C(=O)NC(=O)/C(=C\c3cccn3-c3ccc(Cl)cc3)C2=O)c1`: 8.91 µM; for `O=S1(=O)CCC(NC(=S)SCc2ccccc2Br)C1` (stereo not given): 25.6 µM.
The result for `O=C1Nc2cc(C(=O)NCCN3CCCCCC3)ccc2S/C1=C\c1ccccc1` reads 9.78 µM; that for `OCC1OC(n2cnc3c(NCc4ccco4)ncnc32)C(O)C1O` (stereo not given), 3.88 µM; that for `CC(C)Oc1ccc(C(CCNCc2ccc(O)cc2)c2ccccc2)cc1` (stereo not given), 12.8 µM.
For the compound `CC1CN(N=Cc2ccc([N+](=O)[O-])o2)C(=N)O1` (stereo not given), the AC50 is 24.1 µM.
Take `COc1cccc(NC(=O)Nc2cccc(C(=O)O)c2)c1`: the AC50 was 2.37 µM.
On to `CC(C)=CCc1c(O)ccc2c1OC(c1ccc(O)c(O)c1)CC2=O` (stereo not given), for which the AC50 was 11.7 µM.
The result for `CN1CCN(c2ccc(NC(=O)c3ccc([N+](=O)[O-])o3)cc2Cl)CC1` reads 9.02 µM; that for `CCCCCCCNC(=O)C1(CC2CC(c3ccc(Cl)cc3)=NO2)CCNCC1` (stereo not given), 14 µM.
The result for `CCN1CCc2c(sc(NC(=O)c3ccc(S(=O)(=O)N4CCCCCC4)cc3)c2C(=O)NC)C1` reads 16.6 µM.
